Test results reported in paper PMC4394546, “Discovery of Benzo[f]indole-4,9-dione Derivatives as New Types of Anti-Inflammatory Agents” (International Journal of Molecular Sciences, 2015).

Key:
[1] = test system: fMLF-activated human neutrophils; experiment: Neutrophil elastase release in fMLF-activated human neutrophils; format: cell-based; settings: for IC50: Homo sapiens, Neutrophil, fMLF-activated human neutrophils, mean ± SEM (n = 3), read-out: Elastase Release (IC50, concentration necessary for 50% inhibition)
Experimental: (§1) Blood was taken from healthy human donors (20–30 years old) by venipuncture, using a protocol approved by the institutional review board at Chang Gung Memorial Hospital. Neutrophils were isolated with a standard method of dextran sedimentation prior to centrifugation in a Ficoll Hypaque gradient and hypotonic lysis of erythrocytes.
(§2) Superoxide generation and elastase release were carried out according to the procedures described previously. Neutrophils (6 × 10^5/mL) were equilibrated at 37 °C for 2 min and incubated with compounds for 5 min. Neutrophils were then activated by fMLF (100 nM) in the pretreatment of cytochalasin B (1 μg/mL for superoxide generation and 0.5 μg/mL for elastase release) for 10 min. Superoxide anion production was assayed by monitoring the superoxide dismutase-inhibitable reduction of ferricytochrome c. Elastase release was performed using MeO-Suc-Ala-Ala-Pro-Valp-nitroanilide as the elastase substrate.

[2] = In vitro cytotoxicity against MCF7 cells; format: cell-based; settings: human, MCF7 breast cancer cells; 4 μg/mL; read-out: Cytotoxicity (% survival rate), MCF7
Experimental: (§3) These benzo[f]indole-4,9-dione derivatives were evaluated in vitro against a panel of cell lines consisting of MCF7 (breast), NCI-H460 (lung), and SF-268 (CNS) as described previously. […] Results from Table 2 indicated compounds 15 and 16 were cytotoxic and their IC50 against three cancer cells and a normal cell, Detroit 551, were shown in Table 3.

MCF7 (breast) = experiment: In vitro cytotoxicity against MCF7 cells; format: cell-based; settings: Homo sapiens, MCF7; mean ± standard deviation, three experiments
Experimental: as §3

[3] = In vitro cytotoxicity against NCI-H460 cells; format: cell-based; settings: human, NCI-H460 lung cancer cells; 4 μg/mL; read-out: Cytotoxicity (% survival rate), NCI-H460
Experimental: as §3

NCI-H460 (lung) = experiment: In vitro cytotoxicity against NCI-H460 cells; format: cell-based; settings: Homo sapiens, NCI-H460; mean ± standard deviation, three experiments
Experimental: as §3

[4] = test system: fMLF-activated human neutrophils; experiment: Superoxide anion generation in fMLF-activated human neutrophils (ferricytochrome c reduction); format: cell-based; settings: Neutrophil, mean ± SEM (n = 3), read-out: Superoxide Anion (IC50, concentration necessary for 50% inhibition)
Experimental: as §1, §2

Detroit 551 = experiment: In vitro cytotoxicity against normal cell Detroit 551; format: cell-based; settings: Homo sapiens, mean ± standard deviation, three experiments
Experimental: as §3

SF-268 (CNS) = experiment: In vitro cytotoxicity against SF-268 cells; format: cell-based; settings: Homo sapiens, SF-268; mean ± standard deviation, three experiments
Experimental: as §3

[5] = In vitro cytotoxicity against SF-268 cells; format: cell-based; settings: human, SF-268 CNS cancer cells; 4 μg/mL; read-out: Cytotoxicity (% survival rate), SF-268
Experimental: as §3

[6] = test system: LPS-induced PGE2 production; set-up: method as in PMID 22161217; settings: read-out: Inhibition of LPS-induced PGE2 production, IC50; cited from earlier work
[7] = test system: LPS-induced Raw 264.7 cells; set-up: method as in PMID 23232148; settings: cited from earlier work
[8] = test system: LPS-induced Raw 264.7 cells; set-up: method as in PMID 23232148; settings: cited from earlier work; remark: listed apart in the source
alveolar macrophages [9] = test system: alveolar macrophages; set-up: method as in PMID 10188987; settings: cited from earlier work
alveolar macrophages [10] = test system: alveolar macrophages; set-up: method as in PMID 10188987; settings: cited from earlier work; remark: listed apart in the source
human neutrophils = experiment: Cytotoxicity in human neutrophils by lactate dehydrogenase (LDH) release; format: cell-based
Description: The action mechanisms of 10 in human neutrophils were further investigated. Human neutrophil activations, such as respiratory burst and degranulation, are regulated by Akt and calcium signal pathways. Therefore, calcuim and Akt are considered as therapeutic target for developing anti-inflammatory agents.
as §1

Akt (S473) = experiment: Western analysis of fMLF-induced Akt phosphorylation in human neutrophils; format: cell-based; settings: fMLF-activated human neutrophils; Figure 2B
Experimental: as §1
(§4) Neutrophils were pretreated with compounds for 5 min before being stimulated with fMLF at 37 °C. The reaction was stopped by adding 5 × Laemmli’s sample buffer. Proteins derived from whole-cell lysates were separated by SDS-polyacrylamide gel electrophoresis (PAGE) using polyacrylamide gels and blotted onto nitrocellulose membranes. Immunoblotting was performed using the indicated antibodies and horseradish peroxidase (HRP)-conjugated secondary anti-rabbit antibodies (Cell Signaling Technology, Beverly, MA, USA). The immunoreactive bands were visualized by an enhanced chemiluminescence system (Amersham Biosciences, Bucks, UK) and detected by Ultraviolet Product (UVP) imaging system (Upland, CA, USA).

Src (Src family Y416) = experiment: Western analysis of fMLF-induced Src phosphorylation in human neutrophils; format: cell-based; settings: fMLF-activated human neutrophils; Figure 2A
Experimental: as §1, §4

[Ca^2+]i = fMLF-induced intracellular calcium mobilization in human neutrophils (fluo-3 AM); format: cell-based; settings: Figure 3
Experimental: as §1
Neutrophils were loaded with fluo-3 AM (2 μM) at 37 °C for 45 min. Cells were preincubated with compounds for 5 min, and then activated by fMLF (100 nM). The change in fluorescence was monitored using a Hitachi F-4500 spectrofluorometer (Tokyo, Japan). The excitation wavelength was 488 nm, and the emission wavelength was 520 nm.

[11] = test system: superoxide anion generation; set-up: method as in PMID 22510297; settings: cited from earlier work
K562 cell = test system: K562 cell; set-up: method as in PMID 20591678; settings: read-out: IC50 against the growth of K562 cell; cited from earlier work

Compound: CCN(CC)CCNC(=O)c1ccc(/N=C2/c3ccccc3C(=O)c3c2cc(C)n3Cc2ccccc2)cc1 [Compound 16, (Z)-4-(1-benzyl-2-methyl-9-oxo-1H-benzo[f]indol-4(9H)-ylideneamino)-N-[2-(diethylamino)ethyl]benzamide]
- Effect of compound alone on elastase release ([1]; human neutrophils, table dash with footnote b = alone induced elastase release): induced NE release of human neutrophils
- viability at 4 μg/mL [2]: 57%
- IC50 (MCF7 (breast)): 4.95 ± 0.21 µM
- viability at 4 μg/mL [3]: 18%
- IC50 (NCI-H460 (lung)): 3.23 ± 0.34 µM
- IC50 [4]: 0.52 ± 0.11 µM
- melting point: 138 to 139 °C
- IC50 (Detroit 551): 4.78 ± 0.57 µM
- IC50 (SF-268 (CNS)): 25.8 ± 1.66 µM
- viability at 4 μg/mL [5]: 106%

Compound: CON=C(C)c1c2c(n(Cc3ccccc3)c1C)C(=O)c1ccccc1C2=O [Compound 14, 1-Benzyl-3-[1-(methoxyimino)ethyl]-2-methyl-1H-benzo[f]indole-4,9-dione]
- IC50 [1]: > 30 µM
- viability at 4 μg/mL [2]: 104%
- viability at 4 μg/mL [3]: 108%
- IC50 [4]: > 30 µM
- melting point: 168 to 169 °C
- viability at 4 μg/mL [5]: 112%

Compound: Cc1cc2c(n1Cc1ccccc1)C(=O)c1ccccc1C2=NO [Compound 11, 1-Benzyl-4-(hydroxyimino)-2-methyl-1H-benzo[f]indol-9(4H)-one]
- IC50 [1]: > 30 µM
- viability at 4 μg/mL [2]: 104%
- viability at 4 μg/mL [3]: 110%
- IC50 [4]: 7.47 ± 1.39 µM
- melting point: 259 to 260 °C
- viability at 4 μg/mL [5]: 102%

Compound: CC[C@@]1(O)C(=O)OCc2c1cc1n(c2=O)Cc2cc3ccccc3nc2-1 [CPT, camptothecin, reference compound]
- viability at 4 μg/mL [2]: 33%
- IC50 (MCF7 (breast)): 0.57 ± 0.03 µM
- viability at 4 μg/mL [3]: 1%
- IC50 (NCI-H460 (lung)): 0.03 ± 0.003 µM
- IC50 (Detroit 551): 0.99 ± 0.09 µM
- IC50 (SF-268 (CNS)): 0.19 ± 0.006 µM
- viability at 4 μg/mL [5]: 25%

Compound: O=c1cc(N2CCOCC2)oc2c(-c3ccccc3)cccc12 [LY294002, reference compound]
- IC50 [1]: 2.21 ± 0.45 µM
- IC50 [4]: 1.36 ± 0.33 µM

Compound: CC(=O)c1c2c(n(Cc3ccccc3)c1C)C(=O)c1ccccc1C2=O [Compound 12, 3-Acetyl-1-benzyl-2-methyl-1H-benzo[f]indole-4,9-dione]
- IC50 [1]: > 30 µM
- viability at 4 μg/mL [2]: 78%
- viability at 4 μg/mL [3]: 88%
- IC50 [4]: > 30 µM
- melting point: 135 to 136 °C
- viability at 4 μg/mL [5]: 115%

Compound: COc1ccc(-c2nc3c4ccccc4c4occc4c3[nH]2)cc1 [Compound 2, 2-(4-methoxyphenyl)furo[3',2':3,4]naphtho[1,2-d]imidazole]
- IC50 [6]: 0.047 µM

Compound: COc1ccc(OC2=CC(=O)C(=O)c3ccccc32)cc1 [Compound 4, 4-(4-methoxyphenoxy)naphthalene-1,2-dione]
- Inhibition of NO released [7]: able to inhibit
- Inhibition of TNF-α released [8]: able to inhibit

Compound: CC1(C)CCC2=C(O1)c1ccccc1C(=O)C2=O [β-LAPA, β-lapachone]
- Inhibition of expression of nitric oxide (NO) (alveolar macrophages [9]): able to inhibit
- Inhibition of expression of PGE2 (alveolar macrophages [10]): able to inhibit

Compound: CC(=NO)c1c2c(n(Cc3ccccc3)c1C)C(=O)c1ccccc1C2=O [Compound 13, 1-Benzyl-3-[1-(hydroxyimino)ethyl]-2-methyl-1H-benzo[f]indole-4,9-dione]
- IC50 [1]: 14.7 ± 2.44 µM
- viability at 4 μg/mL [2]: 106%
- viability at 4 μg/mL [3]: 111%
- IC50 [4]: 10.5 ± 0.52 µM
- melting point: 204 to 205 °C
- viability at 4 μg/mL [5]: 109%

Compound: O=C1c2ccccc2/C(=N/O)c2ccn(Cc3ccccc3)c21 [Compound 10, (Z)-1-Benzyl-4-(hydroxyimino)-1H-benzo[f]indol-9(4H)-one]
- IC50 [1]: 2.78 µM
- Cytotoxicity in human neutrophils (LDH release) (human neutrophils; 30 μM, data not shown): showed no cytotoxicity effects
- fMLF-induced phosphorylation of Akt (S473) (Akt (S473)): inhibited
- viability at 4 μg/mL [2]: 110%
- viability at 4 μg/mL [3]: 110%
- fMLF-induced phosphorylation of Src (Src family Y416) (Src (Src family Y416)): did not alter
- fMLF-induced mobilization of [Ca^2+]i ([Ca^2+]i): inhibited
- IC50 [4]: 2.74 µM
- melting point: 202 to 203 °C
- viability at 4 μg/mL [5]: 106%

Compound: Cc1cc2c(n1Cc1ccccc1)C(=O)c1ccccc1C2=O [Compound 9, 1-Benzyl-2-methyl-1H-benzo[f]indole-4,9-dione]
- IC50 [1]: > 30 µM
- viability at 4 μg/mL [2]: 105%
- viability at 4 μg/mL [3]: 104%
- IC50 [4]: 14 ± 4.4 µM
- melting point: 139 to 140 °C
- viability at 4 μg/mL [5]: 106%

Compound: O=C1c2ccccc2C(=O)c2c1ccn2Cc1ccccc1 [Compound 8, 1-Benzyl-1H-benzo[f]indole-4,9-dione]
- IC50 [1]: > 30 µM
- viability at 4 μg/mL [2]: 99%
- viability at 4 μg/mL [3]: 96%
- IC50 [4]: 16.1 ± 1.87 µM
- melting point: 173 to 174 °C
- viability at 4 μg/mL [5]: 103%

Compound: benzo[a]furo[2,3-c]phenazinecarboxylic acid [Compound 3]
- Inhibition of superoxide anion generation [11]: strongly inhibited superoxide anion generation

Compound: O=C1c2ccccc2/C(=N/O)c2ccoc21 [Compound 5, (Z)-4-(hydroxyimino)naphtho[2,3-b]furan-9(4H)-one]
- IC50 (K562 cell): 0.82 µM

Compound: CCN(CC)CCNC(=O)c1ccc(/N=C2/c3ccccc3C(=O)c3c2ccn3Cc2ccccc2)cc1 [Compound 15, (Z)-4-(1-benzyl-9-oxo-1H-benzo[f]indol-4(9H)-ylideneamino)-N-[2-(diethylamino)ethyl]benzamide]
- Cytotoxicity in human neutrophils (LDH release) (human neutrophils; 3, 10 and 30 μM): showed cytotoxicity effects
- viability at 4 μg/mL [2]: 82%
- IC50 (MCF7 (breast)): 4.98 ± 0.15 µM
- viability at 4 μg/mL [3]: 31%
- IC50 (NCI-H460 (lung)): 3.16 ± 0.13 µM
- melting point: 152 to 153 °C
- IC50 (Detroit 551): 7.68 ± 0.58 µM
- IC50 (SF-268 (CNS)): 27.4 ± 0.39 µM
- viability at 4 μg/mL [5]: 120%
